In patent US7341836B2, “Modified cyclic nucleotide gated ion channels” (The Regents of the University of Colorado, priority 2001, dated 2008):
“Also recorded” adds a separate entry of the source.

What was measured:
[1] = system: HEK-293 cells expressing C460W/E583M channels; test: PGE1-induced cAMP responses in cell populations (Ca2+ influx through C460W/E583M channels); format: cell-based, human; conditions: for effect of PDE inhibitor added after PGE1: 100 μM IBMX or 10 μM RO-20-1724
Description: In this Example, experiments conducted to detect cAMP levels in cells are described. Changes in cyclic AMP concentrations in response to PGE1 stimulation were monitored in HEK-293 cells by measuring Ca^2+ influx through C460W/E583M CNG channels (See, Rich et al. [2001], supra). HEK-293 cells express a variety of extracellular receptors including prostanoid receptors (Thomas and Hoffman, Mol. Pharmacol., 49:907-914 [1996]), and the cAMP-specific PDE type IV (Rich et al. [2001], supra; and Hoffmann et al., EMBO J., 18:893-903 [1999]). Based on PCR analysis, these cells also appear to express AC types II, […], VI, and VII, (Hellevuo et al., Biochem. Biophys. Res. Commun., 192:311-318 [1993]). C460W/E583M channels were expressed heterologously using an adenovirus construct (See, Rich et al. [2001], supra). The Ca^2+ permeability of the channel was used to detect changes in local cAMP concentration; the fluorescent indicator fura-2 was used to monitor Ca^2+ entry. With this approach, incremental changes in cAMP concentration are readily detected as changes in relative Ca^2+ influx rates through C460W/E583M channels (See, Rich et al., [2001], supra).
Transient responses were observed over a large range of PGE1 concentrations, from 0.01 to 10 μM (FIG. 17, Panel A). […] The decline was unlikely to result primarily from a reduction in AC activity (e.g., receptor desensitization), because of the sustained accumulation of total cellular cAMP in the presence of IBMX (See, FIG. 16, Panel B). To verify this, 100 μM IBMX was added at various times after PGE1 application.
To test whether PGE1 did indeed increase the total PDE activity, 100 nM PGE1 were added at various times after the initial application of 100 nM PGE1 (a subsaturating concentration). There was a negligible response to the subsequent addition of PGE1, even after 50 min (FIG. 17, Panel D). Taken together, the results of the experiments shown in FIG. 17, Panels C and D argue that the cAMP transient is due to an initial increase in AC activity, followed by a more profound increase in PDE activity. […] As indicated herein, these processes are crucial for the generation of spatially and temporally distinct cAMP signals.

[2] = system: rat olfactory CNG channel α subunit; test: Excised inside-out patch recordings, cyclic nucleotide dose-response of CNG channel constructs; format: biochemical; conditions: 100 μM IBMX; 1 μM PGE1
In short: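 Inside-out patches were excised and recorded at 20-21° C., with symmetrical 130 mM NaCl, 2 mM HEPES, 0.02 mM EDTA, 1 mM EGTA, pH 7.6. Currents were elicited by 250 ms pulses to +50 and −50 mV; cyclic nucleotide-induced current was taken as the difference with and without cNMP. cAMP and cGMP dose-responses were fitted to the Hill equation for K1/2 and N.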

[3] = system: PDE VI; conditions: cited from earlier work
[4] = system: PDE IV; conditions: cited from earlier work

## CCCCOc1cc(CC2CNC(=O)N2)ccc1OC (stereo not shown) [RO-20-1724, 4-(3-butoxy-4-methoxybenzyl)-2-imidazolidinone]
[1]
  effect of PDE inhibitor added after PGE1: caused sharp increases in cAMP
[2]
  effect on CNG channel activity in excised membrane patches: no effect on channel activity

## CC(C)Cn1c(=O)n(C)c(=O)c2[nH]cnc21 [IBMX, 3-isobutyl-1-methylxanthine]
[1]; 100 μM IBMX added 1-50 min after 100 nM PGE1
  slopes of the IBMX-induced responses: 0.0044 ± 0.0008 s⁻¹
[1]
  effect of PDE inhibitor added after PGE1: triggered a rapid Ca^2+ influx
[3]
  IC50: 10 µM
[4]
  IC50: 5 to 15 µM
[2]
  effect on CNG channel activity in excised membrane patches: did not alter CNG channel activity; also recorded: no effect on channel activity
